Measurements: ChEMBL document CHEMBL5126592, “Design, synthesis and activity against drug-resistant bacteria evaluation of C-20, C-23 modified 5-O-mycaminosyltylonolide derivatives” (Eur J Med Chem, 2022)
Values after ≈ are worked out from the molar mass of the structure shown.

Tests used:
Assay type in all cases: functional
Conditions in all cases: time 16-20 hrs
Escherichia coli = assay: Antibacterial activity against Escherichia coli ATCC 25922 incubated for 16 to 20 hrs by broth microdilution method
Cronobacter sakazakii = assay: Antibacterial activity against Cronobacter sakazakii ATCC 29544 incubated for 16 to 20 hrs by broth microdilution method
Klebsiella pneumoniae = assay: Antibacterial activity against Klebsiella pneumoniae ATCC 13883 incubated for 16 to 20 hrs by broth microdilution method
Staphylococcus aureus = assay: Antibacterial activity against Staphylococcus aureus ATCC 25923 incubated for 16 to 20 hrs by broth microdilution method

MIC (Escherichia coli)	MIC (Cronobacter sakazakii)	MIC (Klebsiella pneumoniae)	MIC (Staphylococcus aureus)	SMILES
4 µg/mL (≈ 3.97 µM)	8 µg/mL (≈ 7.94 µM)	8 µg/mL (≈ 7.94 µM)	0.5 µg/mL (≈ 0.496 µM)	CC[C@H]1OC(=O)C[C@@H](O)[C@H](C)[C@@H](O[C@@H]2O[C@H](C)[C@@H](O)[C@H](N(C)C)[C@H]2O)[C@@H](CCN(Cc2ccc(N(C)C)cc2)Cc2cn(-c3cnc4ccccc4c3)nn2)C[C@@H](C)C(=O)/C=C/C(C)=C/[C@@H]1CN1CCCCC1
16 µg/mL (≈ 15.7 µM)	32 µg/mL (≈ 31.3 µM)	16 µg/mL (≈ 15.7 µM)	2 µg/mL (≈ 1.96 µM)	CC[C@H]1OC(=O)C[C@@H](O)[C@H](C)[C@@H](O[C@@H]2O[C@H](C)[C@@H](O)[C@H](N(C)C)[C@H]2O)[C@@H](CCN(Cc2ccc(OC)cc2)Cc2cn(-c3cnc4ccccc4c3)nn2)C[C@@H](C)C(=O)/C=C/C(C)=C/[C@@H]1CN1CC(C)CC(C)C1 (stereo partly drawn)
16 µg/mL (≈ 16.3 µM)	16 µg/mL (≈ 16.3 µM)	16 µg/mL (≈ 16.3 µM)	2 µg/mL (≈ 2.04 µM)	CC[C@H]1OC(=O)C[C@@H](O)[C@H](C)[C@@H](O[C@@H]2O[C@H](C)[C@@H](O)[C@H](N(C)C)[C@H]2O)[C@@H](CCN(Cc2cn(-c3cnc4ccccc4c3)nn2)Cc2ccco2)C[C@@H](C)C(=O)/C=C/C(C)=C/[C@@H]1CN1CC(C)CC(C)C1 (stereo partly drawn)
4 µg/mL (≈ 4.02 µM)	16 µg/mL (≈ 16.1 µM)	8 µg/mL (≈ 8.05 µM)	0.5 µg/mL (≈ 0.503 µM)	CC[C@H]1OC(=O)C[C@@H](O)[C@H](C)[C@@H](O[C@@H]2O[C@H](C)[C@@H](O)[C@H](N(C)C)[C@H]2O)[C@@H](CCN(Cc2ccc(OC)cc2)Cc2cn(-c3cnc4ccccc4c3)nn2)C[C@@H](C)C(=O)/C=C/C(C)=C/[C@@H]1CN1CCCCC1
4 µg/mL (≈ 4.07 µM)	32 µg/mL (≈ 32.6 µM)	8 µg/mL (≈ 8.14 µM)	1 µg/mL (≈ 1.02 µM)	CC[C@H]1OC(=O)C[C@@H](O)[C@H](C)[C@@H](O[C@@H]2O[C@H](C)[C@@H](O)[C@H](N(C)C)[C@H]2O)[C@@H](CCN(Cc2cn(-c3cnc4ccccc4c3)nn2)Cc2ccco2)C[C@@H](C)C(=O)/C=C/C(C)=C/[C@@H]1CN1CCCCCCC1
16 µg/mL (≈ 17.2 µM)	32 µg/mL (≈ 34.4 µM)	32 µg/mL (≈ 34.4 µM)	2 µg/mL (≈ 2.15 µM)	CC[C@H]1OC(=O)C[C@@H](O)[C@H](C)[C@@H](O[C@@H]2O[C@H](C)[C@@H](O)[C@H](N(C)C)[C@H]2O)[C@@H](CCN(C)Cc2cn(-c3cnc4ccccc4c3)nn2)C[C@@H](C)C(=O)/C=C/C(C)=C/[C@@H]1CI
4 µg/mL (≈ 4.13 µM)	8 µg/mL (≈ 8.26 µM)	4 µg/mL (≈ 4.13 µM)	1 µg/mL (≈ 1.03 µM)	CC[C@H]1OC(=O)C[C@@H](O)[C@H](C)[C@@H](O[C@@H]2O[C@H](C)[C@@H](O)[C@H](N(C)C)[C@H]2O)[C@@H](CCN(Cc2cn(-c3cnc4ccccc4c3)nn2)Cc2ccco2)C[C@@H](C)C(=O)/C=C/C(C)=C/[C@@H]1CN1CCCCCC1
4 µg/mL (≈ 3.91 µM)	16 µg/mL (≈ 15.7 µM)	16 µg/mL (≈ 15.7 µM)	1 µg/mL (≈ 0.978 µM)	CC[C@H]1OC(=O)C[C@@H](O)[C@H](C)[C@@H](O[C@@H]2O[C@H](C)[C@@H](O)[C@H](N(C)C)[C@H]2O)[C@@H](CCN(Cc2ccc(OC)cc2)Cc2cn(-c3cnc4ccccc4c3)nn2)C[C@@H](C)C(=O)/C=C/C(C)=C/[C@@H]1CN1CCCCCCC1
4 µg/mL (≈ 4.42 µM)	8 µg/mL (≈ 8.85 µM)	4 µg/mL (≈ 4.42 µM)	0.25 µg/mL (≈ 0.276 µM)	CCCN(CCC)C[C@H]1/C=C(C)/C=C/C(=O)[C@H](C)C[C@H](CCN(C)Cc2cn(-c3cnc4ccccc4c3)nn2)[C@H](O[C@@H]2O[C@H](C)[C@@H](O)[C@H](N(C)C)[C@H]2O)[C@@H](C)[C@H](O)CC(=O)O[C@@H]1CC
32 µg/mL (≈ 34.6 µM)	16 µg/mL (≈ 17.3 µM)	16 µg/mL (≈ 17.3 µM)	0.5 µg/mL (≈ 0.54 µM)	CCc1ccc(CN(CC[C@H]2C[C@@H](C)C(=O)/C=C/C(C)=C/[C@H](CO)[C@@H](CC)OC(=O)C[C@@H](O)[C@H](C)[C@H]2O[C@@H]2O[C@H](C)[C@@H](O)[C@H](N(C)C)[C@H]2O)Cc2cn(-c3cnc4ccccc4c3)nn2)cc1
32 µg/mL (≈ 34.9 µM)	32 µg/mL (≈ 34.9 µM)	32 µg/mL (≈ 34.9 µM)	0.5 µg/mL (≈ 0.545 µM)	CC[C@H]1OC(=O)C[C@@H](O)[C@H](C)[C@@H](O[C@@H]2O[C@H](C)[C@@H](O)[C@H](N(C)C)[C@H]2O)[C@@H](CCN(Cc2cn(-c3cnc4ccccc4c3)nn2)Cc2ccc(CO)o2)C[C@@H](C)C(=O)/C=C/C(C)=C/[C@@H]1CO
8 µg/mL (≈ 8.29 µM)	16 µg/mL (≈ 16.6 µM)	32 µg/mL (≈ 33.2 µM)	0.25 µg/mL (≈ 0.259 µM)	CC[C@H]1OC(=O)C[C@@H](O)[C@H](C)[C@@H](O[C@@H]2O[C@H](C)[C@@H](O)[C@H](N(C)C)[C@H]2O)[C@@H](CCN(Cc2ccc(C(F)(F)F)cc2)Cc2cn(-c3cnc4ccccc4c3)nn2)C[C@@H](C)C(=O)/C=C/C(C)=C/[C@@H]1CO
32 µg/mL (≈ 35.6 µM)	32 µg/mL (≈ 35.6 µM)	32 µg/mL (≈ 35.6 µM)	0.5 µg/mL (≈ 0.557 µM)	CC[C@H]1OC(=O)C[C@@H](O)[C@H](C)[C@@H](O[C@@H]2O[C@H](C)[C@@H](O)[C@H](N(C)C)[C@H]2O)[C@@H](CCN(Cc2cccnc2)Cc2cn(-c3cnc4ccccc4c3)nn2)C[C@@H](C)C(=O)/C=C/C(C)=C/[C@@H]1CO
32 µg/mL (≈ 29.5 µM)	16 µg/mL (≈ 14.7 µM)	32 µg/mL (≈ 29.5 µM)	4 µg/mL (≈ 3.68 µM)	CC[C@H]1OC(=O)C[C@@H](O)[C@H](C)[C@@H](O[C@@H]2O[C@H](C)[C@@H](O)[C@H](N(C)C)[C@H]2O)[C@@H](CCN(Cc2ccc(Br)cc2)Cc2cn(-c3cnc4ccccc4c3)nn2)C[C@@H](C)C(=O)/C=C/C(C)=C/[C@@H]1CI
16 µg/mL (≈ 17.7 µM)	32 µg/mL (≈ 35.4 µM)	16 µg/mL (≈ 17.7 µM)	0.25 µg/mL (≈ 0.277 µM)	CC[C@H]1OC(=O)C[C@@H](O)[C@H](C)[C@@H](O[C@@H]2O[C@H](C)[C@@H](O)[C@H](N(C)C)[C@H]2O)[C@@H](CCN(Cc2ccsc2)Cc2cn(-c3cnc4ccccc4c3)nn2)C[C@@H](C)C(=O)/C=C/C(C)=C/[C@@H]1CO
32 µg/mL (≈ 33.5 µM)	32 µg/mL (≈ 33.5 µM)	32 µg/mL (≈ 33.5 µM)	2 µg/mL (≈ 2.1 µM)	CC[C@H]1OC(=O)C[C@@H](O)[C@H](C)[C@@H](O[C@@H]2O[C@H](C)[C@@H](O)[C@H](N(C)C)[C@H]2O)[C@@H](CCN(Cc2ccc(NC(C)=O)cc2)Cc2cn(-c3cnc4ccccc4c3)nn2)C[C@@H](C)C(=O)/C=C/C(C)=C/[C@@H]1CO
4 µg/mL (≈ 4.09 µM)	8 µg/mL (≈ 8.18 µM)	4 µg/mL (≈ 4.09 µM)	1 µg/mL (≈ 1.02 µM)	CC[C@H]1OC(=O)C[C@@H](O)[C@H](C)[C@@H](O[C@@H]2O[C@H](C)[C@@H](O)[C@H](N(C)C)[C@H]2O)[C@@H](CCN(Cc2ccccc2)Cc2cn(-c3cnc4ccccc4c3)nn2)C[C@@H](C)C(=O)/C=C/C(C)=C/[C@@H]1CN1CCCCCC1
8 µg/mL (≈ 8.51 µM)	16 µg/mL (≈ 17 µM)	16 µg/mL (≈ 17 µM)	0.25 µg/mL (≈ 0.266 µM)	CC[C@H]1OC(=O)C[C@@H](O)[C@H](C)[C@@H](O[C@@H]2O[C@H](C)[C@@H](O)[C@H](N(C)C)[C@H]2O)[C@@H](CCN(Cc2ccc(N(C)C)cc2)Cc2cn(-c3cnc4ccccc4c3)nn2)C[C@@H](C)C(=O)/C=C/C(C)=C/[C@@H]1CO
8 µg/mL (≈ 8.38 µM)	32 µg/mL (≈ 33.5 µM)	32 µg/mL (≈ 33.5 µM)	0.25 µg/mL (≈ 0.262 µM)	CC[C@H]1OC(=O)C[C@@H](O)[C@H](C)[C@@H](O[C@@H]2O[C@H](C)[C@@H](O)[C@H](N(C)C)[C@H]2O)[C@@H](CCN(Cc2cn(-c3cnc4ccccc4c3)nn2)Cc2ccco2)C[C@@H](C)C(=O)/C=C/C(C)=C/[C@@H]1CN1CCCCC1
32 µg/mL (≈ 34 µM)	32 µg/mL (≈ 34 µM)	32 µg/mL (≈ 34 µM)	0.25 µg/mL (≈ 0.265 µM)	CC[C@H]1OC(=O)C[C@@H](O)[C@H](C)[C@@H](O[C@@H]2O[C@H](C)[C@@H](O)[C@H](N(C)C)[C@H]2O)[C@@H](CCN(Cc2ccc([N+](=O)[O-])cc2)Cc2cn(-c3cnc4ccccc4c3)nn2)C[C@@H](C)C(=O)/C=C/C(C)=C/[C@@H]1CO
8 µg/mL (≈ 7.92 µM)	32 µg/mL (≈ 31.7 µM)	8 µg/mL (≈ 7.92 µM)	2 µg/mL (≈ 1.98 µM)	CC[C@H]1OC(=O)C[C@@H](O)[C@H](C)[C@@H](O[C@@H]2O[C@H](C)[C@@H](O)[C@H](N(C)C)[C@H]2O)[C@@H](CCN(Cc2ccc(OC)cc2)Cc2cn(-c3cnc4ccccc4c3)nn2)C[C@@H](C)C(=O)/C=C/C(C)=C/[C@@H]1CN1CCC(O)CC1
4 µg/mL (≈ 4.38 µM)	16 µg/mL (≈ 17.5 µM)	8 µg/mL (≈ 8.75 µM)	0.5 µg/mL (≈ 0.547 µM)	CC[C@H]1OC(=O)C[C@@H](O)[C@H](C)[C@@H](O[C@@H]2O[C@H](C)[C@@H](O)[C@H](N(C)C)[C@H]2O)[C@@H](CCN(Cc2cn(-c3cnc4ccccc4c3)nn2)Cc2ccco2)C[C@@H](C)C(=O)/C=C/C(C)=C/[C@@H]1CN(C)C
8 µg/mL (≈ 8.66 µM)	16 µg/mL (≈ 17.3 µM)	4 µg/mL (≈ 4.33 µM)	1 µg/mL (≈ 1.08 µM)	CC[C@H]1OC(=O)C[C@@H](O)[C@H](C)[C@@H](O[C@@H]2O[C@H](C)[C@@H](O)[C@H](N(C)C)[C@H]2O)[C@@H](CCN(Cc2ccccc2)Cc2cn(-c3cnc4ccccc4c3)nn2)C[C@@H](C)C(=O)/C=C/C(C)=C/[C@@H]1CN(C)C
8 µg/mL (≈ 8.38 µM)	32 µg/mL (≈ 33.5 µM)	8 µg/mL (≈ 8.38 µM)	1 µg/mL (≈ 1.05 µM)	CC[C@H]1OC(=O)C[C@@H](O)[C@H](C)[C@@H](O[C@@H]2O[C@H](C)[C@@H](O)[C@H](N(C)C)[C@H]2O)[C@@H](CCN(Cc2ccc(OC)cc2)Cc2cn(-c3cnc4ccccc4c3)nn2)C[C@@H](C)C(=O)/C=C/C(C)=C/[C@@H]1CN(C)C
16 µg/mL (≈ 17.7 µM)	32 µg/mL (≈ 35.4 µM)	16 µg/mL (≈ 17.7 µM)	8 µg/mL (≈ 8.85 µM)	CC[C@H]1OC(=O)C[C@@H](O)[C@H](C)[C@@H](O[C@@H]2O[C@H](C)[C@@H](O)[C@H](N(C)C)[C@H]2O)[C@@H](CCN(C)Cc2cn(-c3cnc4ccccc4c3)nn2)C[C@@H](C)C(=O)/C=C/C(C)=C/[C@@H]1CN1CCC(O)CC1
8 µg/mL (≈ 8.58 µM)	16 µg/mL (≈ 17.2 µM)	16 µg/mL (≈ 17.2 µM)	0.5 µg/mL (≈ 0.536 µM)	CCCCN(CCCC)C[C@H]1/C=C(C)/C=C/C(=O)[C@H](C)C[C@H](CCN(C)Cc2cn(-c3cnc4ccccc4c3)nn2)[C@H](O[C@@H]2O[C@H](C)[C@@H](O)[C@H](N(C)C)[C@H]2O)[C@@H](C)[C@H](O)CC(=O)O[C@@H]1CC
16 µg/mL (≈ 16.3 µM)	16 µg/mL (≈ 16.3 µM)	16 µg/mL (≈ 16.3 µM)	2 µg/mL (≈ 2.04 µM)	CC[C@H]1OC(=O)C[C@@H](O)[C@H](C)[C@@H](O[C@@H]2O[C@H](C)[C@@H](O)[C@H](N(C)C)[C@H]2O)[C@@H](CCN(Cc2ccccc2)Cc2cn(-c3cnc4ccccc4c3)nn2)C[C@@H](C)C(=O)/C=C/C(C)=C/[C@@H]1CN1CCC(O)CC1
